Results published in US20110230478A1 (Bayer ScienceCrop AG, priority 2008, published 2011).
Where a name gives a salt, the structure may show the parent alone. Read-outs that look alike come from different tables or passages of the source.

Test: logP by HPLC on reversed-phase columns (C 18), EEC Directive 79/831 Annex V.A8
Type: physicochemical
Settings: for chromatographic logP: reversed-phase HPLC column (C 18)
[1] = values marked [b], footnote not given
[2] = pH 2.3, pH 2.3, 0.1% aqueous phosphoric acid and acetonitrile, read-out: logP [a]
[3] = method marker [a], footnote not given
[4] = method marker [b], footnote not given, compound 68 value matches logP (pH 2.3)
[5] = method marker [c], footnote not given

Row | SMILES | logP [3] | further results
1 | COCC(C)Nc1nc(Nc2ccc(NC(C)=O)c(OC)c2)ncc1Br (racemic) [Example 125] |  | logP [1]: 1.46[b]
2 | COCC(C)Nc1nc(Nc2ccc(C(=O)Nc3ccccc3)cc2)ncc1Br (racemic) [Example 126] |  | logP [1]: 1.92[b]
3 | CNC(=O)c1ccc(Nc2ncc(Br)c(NC(C)COC)n2)cc1 (racemic) [Example 127] |  | logP [1]: 1.46[b]
4 | C=CCNC(=O)c1ccc(Nc2ncc(Br)c(NC(C)COC)n2)cc1 (racemic) [Example 128] |  | logP [1]: 1.75[b]
5 | CCOC(=O)Nc1cccc(Nc2ncc(Br)c(NC(C)COC)n2)c1 (racemic) [Example 129] |  | logP [1]: 1.87[b]
6 | CNC(=O)Oc1cccc(Nc2ncc(Br)c(NC(C)COC)n2)c1 (racemic) [Example 130] |  | logP [1]: 1.56[b]
7 | COCC(C)Nc1nc(Nc2cccc(NC=O)c2)ncc1Br (racemic) [Example 132] |  | logP [1]: 1.43[b]
8 | CNC(=O)c1ccc(Nc2ncc(Cl)c(NC(C)COC)n2)cc1 (racemic) [Example 135] |  | logP [1]: 1.38[b]
9 | COCC(C)Nc1nc(Nc2ccc(C(=O)NC(C)(C)C)cc2)ncc1Cl (racemic) [Example 137] |  | logP [1]: 2.06[b]
10 | COCC(C)Nc1nc(Nc2ccc(NC=O)cc2)ncc1Cl (racemic) [Example 138] |  | logP [1]: 1.28[b]
11 | COCC(C)Nc1nc(Nc2ccc(NC(C)=O)c(OC)c2)ncc1Cl (racemic) [Example 140] |  | logP [1]: 1.38[b]
12 | COCC(C)Nc1nc(Nc2ccc(C(=O)Nc3ccccc3)cc2)ncc1Cl (racemic) [Example 141] |  | logP [1]: 1.8[b]
13 | CNC(=O)c1cccc(Nc2ncc(Cl)c(NC(C)COC)n2)c1 (racemic) [Example 142] |  | logP [1]: 1.32[b]
14 | CCOC(=O)Nc1cccc(Nc2ncc(Cl)c(NC(C)COC)n2)c1 (racemic) [Example 143] |  | logP [1]: 1.78[b]
15 | CNC(=O)Oc1cccc(Nc2ncc(Cl)c(NC(C)COC)n2)c1 (racemic) [Example 144] |  | logP [1]: 1.48[b]
16 | COCC(C)Nc1nc(Nc2ccc(S(C)(=O)=O)cc2)ncc1Cl (racemic) [Example 145] |  | logP [1]: 1.85[b]
17 | COCC(C)Nc1nc(Nc2ccc(NC(=O)C(C)(C)C)cc2)ncc1Cl (racemic) [Example 146] |  | logP [1]: 1.78[b]
18 | CN1CCN(Cc2cccc([N+](=O)[O-])c2)C1=O [1-methyl-3-(3-nitrobenzyl)imidazolidin-2-one] |  | chromatographic logP [2]: 2.03
19 | COCCNc1nc(Nc2cc(OC)c(OC)c(OC)c2)ncc1Cl [Example 1] | 1.45[a]; | logP [4]: 1.45[b]
20 | COCCNc1nc(Nc2cc(OC)cc(OC)c2)ncc1Cl [Example 4] | 1.67[a] | 
21 | COCCNc1nc(Nc2ccc(S(=O)(=O)N(C)C)cc2)ncc1Cl [Example 6] | 1.9[a]; | logP [4]: 1.9[b]
22 | COCCNc1nc(Nc2ccc(N3CCN(C(=O)OC(C)(C)C)CC3)cc2)ncc1Cl [Example 7] | 2.05[a]; | logP [4]: 2.05[b]
23 | COCCNc1nc(Nc2ccc(OC(C)C)cc2)ncc1Cl [Example 12] | 1.78[a] | 
24 | COCC(C)Nc1nc(Nc2cc(OC)cc(OC)c2)ncc1Cl (stereo not shown) [Example 14] | 1.94[a] | 

Row | SMILES | logP [3] | further results
25 | COCC(C)Nc1nc(Nc2ccc(S(=O)(=O)N(C)C)cc2)ncc1Cl (stereo not shown) [Example 16] | 2.25[a]; | logP [4]: 2.26[b]; logP [a] (pH 2.3, 0.1% aqueous phosphoric acid and acetonitrile): 2.25
26 | COCC(C)Nc1nc(Nc2cc(OC)c(OC)c(OC)c2)ncc1C(F)(F)F (stereo not shown) [Example 24] |  | logP [4]: 2.46[b]
27 | CNc1nc(Nc2ccc(S(=O)(=O)N(C)C)cc2)ncc1Cl [Example 26] | 1.61[a] | 
28 | CN(C)c1nc(Nc2ccc(S(=O)(=O)N(C)C)cc2)ncc1Cl [Example 27] | 2.49[a] | 
29 | CN(C)c1nc(Nc2ccc(S(C)(=O)=O)cc2)ncc1Cl [Example 28] | 1.98[a] | 
30 | COCC(C)Nc1nc(Nc2cccc(S(=O)(=O)N3CCOCC3)c2)ncc1Cl (stereo not shown) [Example 29] | 2.1[a]; | logP [4]: 2.04[b]
31 | CSC[C@H](C)Nc1nc(Nc2ccc(S(=O)(=O)N(C)C)cc2)ncc1Cl [Example 30] | 2.59[a] | 
32 | COCC(C)Nc1nc(Nc2cccc(S(=O)(=O)N(C)C)c2)ncc1Cl (stereo not shown) [Example 31] | 2.02[a]; | logP [4]: 2.18[b]
33 | COCC(C)Nc1nc(Nc2ccc(C(=O)OC)cc2)ncc1Cl (stereo not shown) [Example 38, Methyl 4-({5-chloro-4-[(1-methoxypropan-2-yl)amino]pyrimidin-2-yl}amino)benzene-carboxylate hydrochloride] |  | chromatographic logP (method marker [c], footnote not given, read-out: logP): 3.05; chromatographic logP (pH 2.3, method marker [a], footnote not given, read-out: logP): 2.31; chromatographic logP [2]: 2.31
34 | COC(=O)c1ccc(Nc2ncc(Cl)c(N(C)C)n2)cc1 [Example 39] | 2.47[a]; | logP [5]: 3.3[c]
35 | CCC(C)N(C)c1nc(Nc2cccc(C(C)=O)c2)ncc1Cl.Cl (stereo not shown) [Example 41] | 2.88[a] | 
36 | CC(=O)c1cccc(Nc2ncc(Cl)c(N(C)C)n2)c1.Cl [Example 42] | 1.84[a] | 
37 | CC(C)N(C)c1nc(Nc2cccc(S(=O)(=O)N(C)C)c2)ncc1Cl [Example 43] | 2.96[a] | 
38 | CN(C)c1nc(Nc2ccccc2)ncc1C#N [Example 44] |  | logP [4]: 2.36[b]
39 | CC(=O)c1cccc(Nc2ncc(Cl)c(N(C)C(C)C)n2)c1.Cl [Example 45] | 2.5[a] | 
40 | CC(C)Nc1nc(Nc2cccc(CN3CCN(C)C3=O)c2)ncc1Cl [Example 48] |  | logP [4]: 1.54[b]; logP [5]: 2.56[c];
41 | CCC(C)N(C)c1nc(Nc2cccc(S(=O)(=O)N(C)C)c2)ncc1Cl (stereo not shown) [Example 52] | 3.33[a] | 
42 | COc1cc(Nc2ncc(Cl)c(NCCO)n2)cc(OC)c1.Cl [Example 54] | 1.26[a] | 
43 | COc1cc(Nc2ncc(Cl)c(NCCO)n2)cc(OC)c1OC.Cl [Example 55] | 1.09[a] | 
44 | COCCNc1nc(Nc2cc(OC)cc(OC)c2)ncc1Cl.Cl [Example 62] | 1.67[a]; | logP [4]: 1.67[b]
45 | COCC(C)Nc1nc(Nc2ccc(S(=O)(=O)N3CCOCC3)cc2)ncc1Cl (stereo not shown) [Example 63] | 2.18[a] | 
46 | CC(C)(C)Nc1nc(Nc2ccc(S(=O)(=O)N3CCOCC3)cc2)ncc1Cl [Example 64] | 2.84[a] | 
47 | CSCCNc1nc(Nc2ccccc2)ncc1C#N [Example 67] |  | logP [4]: 2.6[b]

The next lines start with results.

Row | logP [3] | SMILES | further results
48 | 2.13[a]; | COCCNc1nc(Nc2cccc(Cl)c2)ncc1Cl [Example 2] | logP [4]: 2.13[b]
49 | 1.41[a] | COCCNc1nc(Nc2ccccc2)ncc1Cl [Example 3] | 
50 | 1.49[a]; | COCCNc1nc(Nc2cccc(C(C)=O)c2)ncc1Cl [Example 5] | logP [4]: 1.49[b]
51 | 1.69[a] | COCC(C)Nc1nc(Nc2ccc(OC(C)C)cc2)ncc1Cl (stereo not shown) [Example 8] | 
52 | 2.38[a] | COCC(C)Nc1nc(Nc2ccc(C(C)C)cc2)ncc1Cl (stereo not shown) [Example 9] | 
53 | 2.58[a] | COCC(C)Nc1nc(Nc2cccc(Cl)c2)ncc1Cl (stereo not shown) [Example 10] | 
54 | 2.09[a] | COCCNc1nc(Nc2ccc(C(C)C)cc2)ncc1Cl [Example 11] | 
55 | 1.16[a] | CCN(CC)c1ccc(Nc2ncc(Cl)c(NC(C)COC)n2)cc1 (stereo not shown) [Example 13] | 
56 | 1.72[a] | COCC(C)Nc1nc(Nc2cccc(C(C)=O)c2)ncc1Cl (stereo not shown) [Example 15] | 
57 | 1.96[a] | CCC(CO)Nc1nc(Nc2cccc(Cl)c2)ncc1Cl (stereo not shown) [Example 17] | 
58 | 1.41[a] | CCC(CO)Nc1nc(Nc2ccccc2)ncc1Cl (stereo not shown) [Example 18] | 
59 | 1.64[a] | CCC(CO)Nc1nc(Nc2cc(OC)cc(OC)c2)ncc1Cl (stereo not shown) [Example 19] | 
60 | 1.53[a] | CCC(CO)Nc1nc(Nc2cccc(C(C)=O)c2)ncc1Cl (stereo not shown) [Example 21] | 
61 | 1.83[a] | CCC(CO)Nc1nc(Nc2ccc(S(=O)(=O)N(C)C)cc2)ncc1Cl (stereo not shown) [Example 22] | 
62 | 2.02[a] | CCC(CO)Nc1nc(Nc2ccc(N3CCN(C(=O)OC(C)(C)C)CC3)cc2)ncc1Cl (stereo not shown) [Example 23] | 
63 | 2.96[a]; | COCC(C)Nc1nc(Nc2ccccc2)ncc1C(F)(F)F (stereo not shown) [Example 25] | logP [4]: 2.74[b]; logP [5]: 3.52[c];
64 | 2.12[a] | CCCCNc1nc(Nc2ccccc2)ncc1Cl [Example 32] | 
65 | 1.78[a]; | CN(C)c1nc(Nc2ccccc2)ncc1Cl [Example 33] | logP [4]: 1.73[b]

Row | logP [3] | SMILES | further results
66 | 2.17[a] | CC(C)(C)Nc1nc(Nc2ccccc2)ncc1Cl [Example 34] | 
67 | 1.27[a] | CNc1nc(Nc2ccccc2)ncc1Cl [Example 35] | 
68 | 1.77[a] | CC(C)Nc1nc(Nc2ccccc2)ncc1Cl [Example 36] | 
69 | 2.04[a] | CSCC(C)Nc1nc(Nc2ccccc2)ncc1Cl (stereo not shown) [Example 37] | 
70 | 2.85[a] | CCC(C)N(C)c1nc(Nc2ccccc2)ncc1Cl (stereo not shown) [Example 40] | 
71 | 2.45[a] | CC(C)N(C)c1nc(Nc2ccccc2)ncc1Cl.Cl [Example 46] | 
72 | 2.08[a] | CC(C)Nc1nc(Nc2cccc(S(=O)(=O)N(C)C)c2)ncc1Cl [Example 47] | 
73 | 2.15[a] | CC(=O)c1cccc(Nc2ncc(Cl)c(NC(C)(C)C)n2)c1 [Example 49] | 
74 | 1.79[a] | CC(=O)c1cccc(Nc2ncc(Cl)c(NC(C)C)n2)c1.Cl [Example 50] | 
75 | 0.86[a] | Cl.OCCNc1nc(Nc2ccccc2)ncc1Cl [Example 53] | 
76 | 1.06[a] | CC(=O)c1cccc(Nc2ncc(Cl)c(NCCO)n2)c1.Cl [Example 56] | 
77 | 1.6[a] | CC(C)c1ccc(Nc2ncc(Cl)c(NCCO)n2)cc1.Cl [Example 58] | 
78 | 1.48[a] | CC(C)Oc1ccc(Nc2ncc(Cl)c(NCCO)n2)cc1.Cl [Example 59] | 
79 | 2.29[a] | CCN(CC)c1nc(Nc2ccccc2)ncc1Cl [Example 60] | 
80 | 1.41[a]; | COCCNc1nc(Nc2ccccc2)ncc1Cl.Cl [Example 61] | logP [4]: 1.41[b]
81 | 2.04[a] | CCC(C)Nc1nc(Nc2ccccc2)ncc1Cl.Cl (stereo not shown) [Example 65] | 
82 | 1.68[a] | C=CCNc1nc(Nc2ccccc2)ncc1Cl.Cl [Example 66] | 
